From the kinase profiling compilation of Christmann-Franck et al. (2016)
Where “and” joins values, the source holds several entries; their conditions need not be identical. Equal values may be shown once.

How the values were obtained:
EPHA2 (human) = EPHA2 (human) (UniProt P29317)
BRSK2 (human) = BRSK2 (human) (UniProt Q8IWQ3)
PRKCZ (human) = PRKCZ (human) (UniProt Q05513)
MKNK1 (human) = MKNK1 (human) (UniProt Q9BUB5)
MAPK8 (human) = MAPK8 (human) (UniProt P45983)
MAPK15 (human) = MAPK15 (human) (UniProt Q8TD08)
Chain of MAPK15 (human) (Q8TD08 whole entry, looked up): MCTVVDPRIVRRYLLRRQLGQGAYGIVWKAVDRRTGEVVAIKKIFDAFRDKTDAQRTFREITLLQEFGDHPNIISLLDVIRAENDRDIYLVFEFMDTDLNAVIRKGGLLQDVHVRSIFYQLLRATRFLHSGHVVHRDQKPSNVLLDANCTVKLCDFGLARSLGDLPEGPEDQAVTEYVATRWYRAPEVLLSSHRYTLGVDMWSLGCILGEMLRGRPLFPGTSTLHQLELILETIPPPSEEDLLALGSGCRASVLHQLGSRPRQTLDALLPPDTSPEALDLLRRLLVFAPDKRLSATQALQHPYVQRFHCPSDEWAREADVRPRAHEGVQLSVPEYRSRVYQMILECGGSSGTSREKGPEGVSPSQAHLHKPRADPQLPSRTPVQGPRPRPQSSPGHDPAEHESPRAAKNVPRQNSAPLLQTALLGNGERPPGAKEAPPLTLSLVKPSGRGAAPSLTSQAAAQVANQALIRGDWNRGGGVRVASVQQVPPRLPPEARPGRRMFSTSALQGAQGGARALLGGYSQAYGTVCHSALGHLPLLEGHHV

MAPK1 (human) = MAPK1 (human) (UniProt P28482)
SRPK1 (human) = SRPK1 (human) (UniProt Q96SB4)
PAK6 (human) = PAK6 (human) (UniProt Q9NQU5)
LCK (mouse) = settings: accession and sequence are those of the human protein
[1] = test system: RPS6KB1 (human), P23443 [T412E]
Chain of RPS6KB1 (human), P23443 [T412E] (P23443 whole entry T412E, looked up): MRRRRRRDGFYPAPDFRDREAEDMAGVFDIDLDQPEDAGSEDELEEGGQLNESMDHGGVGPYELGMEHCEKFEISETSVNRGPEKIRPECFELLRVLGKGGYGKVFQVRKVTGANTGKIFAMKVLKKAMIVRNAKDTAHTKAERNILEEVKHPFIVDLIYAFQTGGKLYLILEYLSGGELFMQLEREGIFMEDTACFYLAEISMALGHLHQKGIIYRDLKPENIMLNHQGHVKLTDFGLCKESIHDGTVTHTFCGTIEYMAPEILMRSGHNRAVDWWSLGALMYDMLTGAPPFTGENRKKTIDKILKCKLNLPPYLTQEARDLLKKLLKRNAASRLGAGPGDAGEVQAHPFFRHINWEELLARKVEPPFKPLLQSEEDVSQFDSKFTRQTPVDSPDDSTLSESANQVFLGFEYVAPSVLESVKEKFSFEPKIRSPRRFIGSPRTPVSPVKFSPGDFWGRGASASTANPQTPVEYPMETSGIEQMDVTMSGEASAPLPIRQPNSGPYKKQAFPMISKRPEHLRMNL

MAP2K1 (human) = MAP2K1 (human) (UniProt Q02750)
CAMKK2 (human) = CAMKK2 (human) (UniProt Q96RR4)
Chain of CAMKK2 (human) (Q96RR4 whole entry, looked up): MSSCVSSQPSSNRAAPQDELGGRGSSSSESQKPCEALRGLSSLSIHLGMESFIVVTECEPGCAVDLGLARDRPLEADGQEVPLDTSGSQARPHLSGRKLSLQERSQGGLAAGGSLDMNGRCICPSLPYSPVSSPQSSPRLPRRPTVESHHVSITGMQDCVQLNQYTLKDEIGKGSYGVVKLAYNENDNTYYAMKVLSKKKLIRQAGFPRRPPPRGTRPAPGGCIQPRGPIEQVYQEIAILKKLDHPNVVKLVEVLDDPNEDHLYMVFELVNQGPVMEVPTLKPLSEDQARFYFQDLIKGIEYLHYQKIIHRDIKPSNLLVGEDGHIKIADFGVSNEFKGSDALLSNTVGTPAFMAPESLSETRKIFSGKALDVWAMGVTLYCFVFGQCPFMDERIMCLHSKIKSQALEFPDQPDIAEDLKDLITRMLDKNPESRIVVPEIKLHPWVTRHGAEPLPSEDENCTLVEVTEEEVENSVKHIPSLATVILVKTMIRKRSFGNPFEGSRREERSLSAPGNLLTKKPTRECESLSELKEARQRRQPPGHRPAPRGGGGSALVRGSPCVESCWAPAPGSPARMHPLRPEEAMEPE

RPS6KA1 KD1 KD2 (human) = RPS6KA1 KD1 KD2 (human) (UniProt Q15418)
MAPK11 (human) = MAPK11 (human) (UniProt Q15759)
EEF2K (human) = EEF2K (human) (UniProt O00418)
CSNK2A1 (human) = CSNK2A1 (human) (UniProt P68400)
ROCK2 (rat) = settings: accession and sequence are those of the human protein
PHKG1 (human) = PHKG1 (human) (UniProt Q16816)
PAK4 (human) = PAK4 (human) (UniProt O96013)
Chain of PAK4 (human) (O96013 whole entry, looked up): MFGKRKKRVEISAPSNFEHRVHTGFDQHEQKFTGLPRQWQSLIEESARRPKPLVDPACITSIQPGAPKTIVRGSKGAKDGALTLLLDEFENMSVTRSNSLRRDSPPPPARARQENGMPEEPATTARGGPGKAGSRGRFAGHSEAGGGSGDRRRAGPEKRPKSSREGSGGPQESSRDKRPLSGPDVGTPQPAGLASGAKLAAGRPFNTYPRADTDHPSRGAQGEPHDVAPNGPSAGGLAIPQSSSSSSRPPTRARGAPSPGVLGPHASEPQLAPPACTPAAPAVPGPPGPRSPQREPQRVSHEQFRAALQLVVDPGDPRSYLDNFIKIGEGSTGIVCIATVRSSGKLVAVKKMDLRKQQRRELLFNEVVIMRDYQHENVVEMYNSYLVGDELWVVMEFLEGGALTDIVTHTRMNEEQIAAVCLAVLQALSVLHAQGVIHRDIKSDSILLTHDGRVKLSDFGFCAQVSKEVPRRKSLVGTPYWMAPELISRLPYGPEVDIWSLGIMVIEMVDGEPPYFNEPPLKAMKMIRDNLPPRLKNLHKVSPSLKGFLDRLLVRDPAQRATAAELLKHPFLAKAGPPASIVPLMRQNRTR

MARK3 (human) = MARK3 (human) (UniProt P27448)
YES1 (human) = YES1 (human) (UniProt P07947)
Chain of YES1 (human) (P07947 whole entry, looked up): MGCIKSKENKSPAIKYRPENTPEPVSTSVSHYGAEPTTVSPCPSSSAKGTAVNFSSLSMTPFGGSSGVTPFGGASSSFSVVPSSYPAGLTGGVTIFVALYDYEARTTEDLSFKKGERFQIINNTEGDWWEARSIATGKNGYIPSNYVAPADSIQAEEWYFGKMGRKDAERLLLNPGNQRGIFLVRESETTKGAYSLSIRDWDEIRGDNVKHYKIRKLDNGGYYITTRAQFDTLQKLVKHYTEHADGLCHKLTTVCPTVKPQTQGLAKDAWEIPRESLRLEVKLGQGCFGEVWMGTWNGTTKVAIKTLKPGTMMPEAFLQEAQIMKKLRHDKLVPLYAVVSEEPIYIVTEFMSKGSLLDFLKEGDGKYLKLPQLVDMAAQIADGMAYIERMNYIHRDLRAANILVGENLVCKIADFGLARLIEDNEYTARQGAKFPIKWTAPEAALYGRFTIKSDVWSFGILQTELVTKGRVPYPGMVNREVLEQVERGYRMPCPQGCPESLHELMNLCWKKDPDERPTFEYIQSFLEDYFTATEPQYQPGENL

PDPK1 (human) = PDPK1 (human) (UniProt O15530)
MAPKAPK2 (human) = MAPKAPK2 (human) (UniProt P49137)
Chain of MAPKAPK2 (human) (P49137 whole entry, looked up): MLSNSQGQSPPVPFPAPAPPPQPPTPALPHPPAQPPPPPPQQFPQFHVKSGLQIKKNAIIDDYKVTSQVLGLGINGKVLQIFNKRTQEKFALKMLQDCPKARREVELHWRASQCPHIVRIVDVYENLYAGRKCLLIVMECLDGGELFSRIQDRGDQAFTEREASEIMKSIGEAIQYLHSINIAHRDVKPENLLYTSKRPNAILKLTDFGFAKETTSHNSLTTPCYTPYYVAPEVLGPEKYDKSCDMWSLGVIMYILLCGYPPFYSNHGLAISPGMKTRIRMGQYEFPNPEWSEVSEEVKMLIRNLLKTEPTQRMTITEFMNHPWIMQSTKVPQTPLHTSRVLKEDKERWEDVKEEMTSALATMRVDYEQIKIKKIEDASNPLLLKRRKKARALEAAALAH

PLK1 (human) = PLK1 (human) (UniProt P53350)
FGFR1 (human) = FGFR1 (human) (UniProt P11362)
MAPK9 (human) = MAPK9 (human) (UniProt P45984); settings: compound 1.0 µM
PIM1 (human) = PIM1 (human) (UniProt P11309)
CSK (human) = CSK (human) (UniProt P41240)
IKBKE (human) = IKBKE (human) (UniProt Q14164)
PRKCA (human) = PRKCA (human) (UniProt P17252)
FLT1 (human) = FLT1 (human) (UniProt P17948)
Chain of FLT1 (human) (P17948 whole entry, looked up): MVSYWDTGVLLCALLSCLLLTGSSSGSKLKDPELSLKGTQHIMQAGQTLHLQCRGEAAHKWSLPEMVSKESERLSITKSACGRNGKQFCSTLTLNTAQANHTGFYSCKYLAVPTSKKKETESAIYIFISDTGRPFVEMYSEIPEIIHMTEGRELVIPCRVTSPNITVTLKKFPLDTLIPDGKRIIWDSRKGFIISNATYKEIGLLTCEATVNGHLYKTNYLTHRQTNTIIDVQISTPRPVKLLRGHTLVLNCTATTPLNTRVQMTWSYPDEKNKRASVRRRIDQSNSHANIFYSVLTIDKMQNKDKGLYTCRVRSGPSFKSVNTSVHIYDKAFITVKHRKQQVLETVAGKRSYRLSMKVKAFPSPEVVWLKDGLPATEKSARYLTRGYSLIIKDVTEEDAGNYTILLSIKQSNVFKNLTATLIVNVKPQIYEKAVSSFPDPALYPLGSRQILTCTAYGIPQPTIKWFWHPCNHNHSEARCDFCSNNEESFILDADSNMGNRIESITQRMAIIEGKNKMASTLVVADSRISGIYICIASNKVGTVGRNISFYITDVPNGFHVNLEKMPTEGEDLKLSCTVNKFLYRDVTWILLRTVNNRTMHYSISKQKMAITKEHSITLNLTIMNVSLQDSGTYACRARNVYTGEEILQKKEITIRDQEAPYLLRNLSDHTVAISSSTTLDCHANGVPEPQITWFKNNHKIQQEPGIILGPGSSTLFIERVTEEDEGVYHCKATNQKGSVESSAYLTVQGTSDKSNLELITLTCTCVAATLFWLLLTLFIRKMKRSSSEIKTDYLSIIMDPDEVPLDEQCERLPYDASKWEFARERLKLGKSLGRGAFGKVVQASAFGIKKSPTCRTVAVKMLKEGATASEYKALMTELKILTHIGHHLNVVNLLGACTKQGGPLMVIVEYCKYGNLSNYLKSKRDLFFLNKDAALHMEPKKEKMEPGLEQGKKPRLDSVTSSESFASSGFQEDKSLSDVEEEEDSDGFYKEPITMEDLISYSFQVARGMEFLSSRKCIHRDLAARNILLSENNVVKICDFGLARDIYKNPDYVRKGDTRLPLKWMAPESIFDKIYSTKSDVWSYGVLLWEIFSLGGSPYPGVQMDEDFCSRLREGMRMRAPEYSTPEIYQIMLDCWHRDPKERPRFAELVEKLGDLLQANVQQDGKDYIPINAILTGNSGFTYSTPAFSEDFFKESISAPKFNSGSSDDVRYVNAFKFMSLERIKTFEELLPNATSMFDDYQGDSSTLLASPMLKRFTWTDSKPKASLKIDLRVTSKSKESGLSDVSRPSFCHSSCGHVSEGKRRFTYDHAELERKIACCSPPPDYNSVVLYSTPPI

RPS6KA5 KD1 KD2 (human) = RPS6KA5 KD1 KD2 (human) (UniProt O75582)
CSNK1D (human) = CSNK1D (human) (UniProt P48730)

Chain of MKNK1 (human) (Q9BUB5 whole entry, looked up): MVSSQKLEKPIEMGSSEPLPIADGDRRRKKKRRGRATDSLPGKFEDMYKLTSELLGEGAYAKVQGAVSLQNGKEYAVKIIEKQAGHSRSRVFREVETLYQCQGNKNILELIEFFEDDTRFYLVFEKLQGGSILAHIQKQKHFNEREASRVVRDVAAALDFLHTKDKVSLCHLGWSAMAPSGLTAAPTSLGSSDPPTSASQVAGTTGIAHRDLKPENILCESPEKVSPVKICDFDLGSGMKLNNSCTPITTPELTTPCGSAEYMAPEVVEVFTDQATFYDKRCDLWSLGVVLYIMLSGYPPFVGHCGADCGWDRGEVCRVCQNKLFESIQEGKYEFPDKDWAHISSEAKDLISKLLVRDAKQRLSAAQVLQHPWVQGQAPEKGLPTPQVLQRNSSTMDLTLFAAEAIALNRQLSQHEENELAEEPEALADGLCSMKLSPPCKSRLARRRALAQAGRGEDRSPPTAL

## CC(C)n1nc(-c2cc3cc(O)ccc3[nH]2)c2c(N)ncnc21
EPHA2 (human); compound 1.0 µM
  per cent of control: 12%
EPHA2 (human); compound 10.0 µM
  per cent of control: 3%
BRSK2 (human); compound 1.0 µM
  per cent of control: 26%
BRSK2 (human); compound 10.0 µM
  per cent of control: 4%
PRKCZ (human); compound 1.0 µM
  per cent of control: 91%
PRKCZ (human); compound 10.0 µM
  per cent of control: 51%
MKNK1 (human); compound 1.0 µM
  per cent of control: 51%
MKNK1 (human); compound 10.0 µM
  per cent of control: 12%
MAPK8 (human); compound 1.0 µM
  per cent of control: 94%
MAPK8 (human); compound 10.0 µM
  per cent of control: 103%
MAPK15 (human); compound 1.0 µM
  per cent of control: 50%
MAPK15 (human); compound 10.0 µM
  per cent of control: 6%
MAPK1 (human); compound 1.0 µM
  per cent of control: 106%
MAPK1 (human); compound 10.0 µM
  per cent of control: 88%
SRPK1 (human); compound 1.0 µM
  per cent of control: 86%
SRPK1 (human); compound 10.0 µM
  per cent of control: 63%
PAK6 (human); compound 1.0 µM
  per cent of control: 80%
PAK6 (human); compound 10.0 µM
  per cent of control: 38%
LCK (mouse); compound 1.0 µM
  per cent of control: 13%
LCK (mouse); compound 10.0 µM
  per cent of control: 4%
[1]; compound 1.0 µM
  per cent of control: 80%
[1]; compound 10.0 µM
  per cent of control: 50%
MAP2K1 (human); compound 1.0 µM
  per cent of control: 25%
MAP2K1 (human); compound 10.0 µM
  per cent of control: 10%
CAMKK2 (human); compound 1.0 µM
  per cent of control: 72%
CAMKK2 (human); compound 10.0 µM
  per cent of control: 30%
RPS6KA1 KD1 KD2 (human); compound 1.0 µM
  per cent of control: 53%
RPS6KA1 KD1 KD2 (human); compound 10.0 µM
  per cent of control: 19%
MAPK11 (human); compound 1.0 µM
  per cent of control: 91%
MAPK11 (human); compound 10.0 µM
  per cent of control: 77%
EEF2K (human); compound 1.0 µM
  per cent of control: 115%
EEF2K (human); compound 10.0 µM
  per cent of control: 106%
CSNK2A1 (human); compound 1.0 µM
  per cent of control: 72%
CSNK2A1 (human); compound 10.0 µM
  per cent of control: 40%
ROCK2 (rat); compound 1.0 µM
  per cent of control: 105%
ROCK2 (rat); compound 10.0 µM
  per cent of control: 77%
PHKG1 (human); compound 1.0 µM
  per cent of control: 72%
PHKG1 (human); compound 10.0 µM
  per cent of control: 25%
PAK4 (human); compound 1.0 µM
  per cent of control: 88%
PAK4 (human); compound 10.0 µM
  per cent of control: 28%
MARK3 (human); compound 1.0 µM
  per cent of control: 67%
MARK3 (human); compound 10.0 µM
  per cent of control: 31%
YES1 (human); compound 1.0 µM
  per cent of control: -2%
YES1 (human); compound 10.0 µM
  per cent of control: -8%
PDPK1 (human); compound 1.0 µM
  per cent of control: 83% and 93%
PDPK1 (human); compound 10.0 µM
  per cent of control: 60% and 71%
MAPKAPK2 (human); compound 1.0 µM
  per cent of control: 96%
MAPKAPK2 (human); compound 10.0 µM
  per cent of control: 94%
PLK1 (human); compound 1.0 µM
  per cent of control: 89%
PLK1 (human); compound 10.0 µM
  per cent of control: 47%
FGFR1 (human); compound 1.0 µM
  per cent of control: 14%
FGFR1 (human); compound 10.0 µM
  per cent of control: 2%
MAPK9 (human)
  per cent of control: 103%
PIM1 (human); compound 1.0 µM
  per cent of control: 74%
PIM1 (human); compound 10.0 µM
  per cent of control: 21%
CSK (human); compound 1.0 µM
  per cent of control: 52%
CSK (human); compound 10.0 µM
  per cent of control: 34%
IKBKE (human); compound 1.0 µM
  per cent of control: 86%
IKBKE (human); compound 10.0 µM
  per cent of control: 64%
PRKCA (human); compound 1.0 µM
  per cent of control: 13%
PRKCA (human); compound 10.0 µM
  per cent of control: 9%
FLT1 (human); compound 1.0 µM
  per cent of control: 11%
FLT1 (human); compound 10.0 µM
  per cent of control: 2%
RPS6KA5 KD1 KD2 (human); compound 1.0 µM
  per cent of control: 105%
RPS6KA5 KD1 KD2 (human); compound 10.0 µM
  per cent of control: 49%
CSNK1D (human); compound 1.0 µM
  per cent of control: 50%
CSNK1D (human); compound 10.0 µM
  per cent of control: 9%

## CCC(=O)N1CCN(c2ccc(-n3c(=O)ccc4cnc5ccc(-c6cnc7ccccc7c6)cc5c43)cc2C(F)(F)F)CC1
EPHA2 (human); compound 1.0 µM
  per cent of control: 120%
EPHA2 (human); compound 10.0 µM
  per cent of control: 87%
BRSK2 (human); compound 1.0 µM
  per cent of control: 102%
BRSK2 (human); compound 10.0 µM
  per cent of control: 104%
PRKCZ (human); compound 1.0 µM
  per cent of control: 121%
PRKCZ (human); compound 10.0 µM
  per cent of control: 106%
MKNK1 (human); compound 1.0 µM
  per cent of control: 93%
MKNK1 (human); compound 10.0 µM
  per cent of control: 96%
MAPK8 (human); compound 1.0 µM
  per cent of control: 98%
MAPK15 (human); compound 1.0 µM
  per cent of control: 78%
MAPK15 (human); compound 10.0 µM
  per cent of control: 46%
MAPK1 (human); compound 1.0 µM
  per cent of control: 102%
MAPK1 (human); compound 10.0 µM
  per cent of control: 90%
SRPK1 (human); compound 1.0 µM
  per cent of control: 107%
SRPK1 (human); compound 10.0 µM
  per cent of control: 110%
PAK6 (human); compound 1.0 µM
  per cent of control: 110%
PAK6 (human); compound 10.0 µM
  per cent of control: 80%
LCK (mouse); compound 1.0 µM
  per cent of control: 93%
LCK (mouse); compound 10.0 µM
  per cent of control: 78%
[1]; compound 1.0 µM
  per cent of control: 97%
[1]; compound 10.0 µM
  per cent of control: 81%
MAP2K1 (human); compound 1.0 µM
  per cent of control: 69%
MAP2K1 (human); compound 10.0 µM
  per cent of control: 22%
CAMKK2 (human); compound 1.0 µM
  per cent of control: 95%
CAMKK2 (human); compound 10.0 µM
  per cent of control: 81%
RPS6KA1 KD1 KD2 (human); compound 1.0 µM
  per cent of control: 93%
RPS6KA1 KD1 KD2 (human); compound 10.0 µM
  per cent of control: 71%
MAPK11 (human); compound 1.0 µM
  per cent of control: 83%
MAPK11 (human); compound 10.0 µM
  per cent of control: 78%
EEF2K (human); compound 1.0 µM
  per cent of control: 118%
EEF2K (human); compound 10.0 µM
  per cent of control: 111%
CSNK2A1 (human); compound 10.0 µM
  per cent of control: 95%
ROCK2 (rat); compound 1.0 µM
  per cent of control: 96%
ROCK2 (rat); compound 10.0 µM
  per cent of control: 101%
PHKG1 (human); compound 1.0 µM
  per cent of control: 110%
PHKG1 (human); compound 10.0 µM
  per cent of control: 99%
PAK4 (human); compound 1.0 µM
  per cent of control: 110%
PAK4 (human); compound 10.0 µM
  per cent of control: 66%
MARK3 (human); compound 1.0 µM
  per cent of control: 99%
MARK3 (human); compound 10.0 µM
  per cent of control: 98%
YES1 (human); compound 1.0 µM
  per cent of control: 113%
YES1 (human); compound 10.0 µM
  per cent of control: 78%
PDPK1 (human); compound 1.0 µM
  per cent of control: 100% and 117%
PDPK1 (human); compound 10.0 µM
  per cent of control: 98% and 101%
MAPKAPK2 (human); compound 1.0 µM
  per cent of control: 102%
MAPKAPK2 (human); compound 10.0 µM
  per cent of control: 108%
PLK1 (human); compound 1.0 µM
  per cent of control: 94%
PLK1 (human); compound 10.0 µM
  per cent of control: 84%
FGFR1 (human); compound 1.0 µM
  per cent of control: 110%
FGFR1 (human); compound 10.0 µM
  per cent of control: 79%
MAPK9 (human)
  per cent of control: 98%
PIM1 (human); compound 1.0 µM
  per cent of control: 82%
PIM1 (human); compound 10.0 µM
  per cent of control: 24%
CSK (human); compound 1.0 µM
  per cent of control: 101%
CSK (human); compound 10.0 µM
  per cent of control: 83%
IKBKE (human); compound 1.0 µM
  per cent of control: 96%
IKBKE (human); compound 10.0 µM
  per cent of control: 85%
PRKCA (human); compound 1.0 µM
  per cent of control: 83%
PRKCA (human); compound 10.0 µM
  per cent of control: 68%
FLT1 (human); compound 1.0 µM
  per cent of control: 108%
FLT1 (human); compound 10.0 µM
  per cent of control: 84%
RPS6KA5 KD1 KD2 (human); compound 1.0 µM
  per cent of control: 86%
CSNK1D (human); compound 1.0 µM
  per cent of control: 93%
CSNK1D (human); compound 10.0 µM
  per cent of control: 104%
